Measured values as given in PubChem BioAssay (NCI).
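Where inhibition never reached the appropriate level, the endpoint shown equals the highest concentration tested. Otherwise, values were interpolated linearly from a five-concentration, 48-hour dose response in 96-well plates. The concentration for 50% growth inhibition is given as GI50. TGI is the concentration that stops growth completely.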

Legend:
Assay in all cases: growth of human tumour cells (NCI), 48 h
SN12C renal = tested on: SN12C renal
HL-60(TB) leukemia = tested on: HL-60(TB) leukemia
MOLT-4 leukemia = tested on: MOLT-4 leukemia
NCI-H522 lung = tested on: NCI-H522 lung
EKVX NSCLC = tested on: EKVX NSCLC
RPMI-8226 leukemia = tested on: RPMI-8226 leukemia
SF-268 CNS = tested on: SF-268 CNS
LOX IMVI melanoma = tested on: LOX IMVI melanoma
UO-31 renal = tested on: UO-31 renal
HOP-92 NSCLC = tested on: HOP-92 NSCLC
BT-549 breast = tested on: BT-549 breast

| Structure (SMILES) | TGI (SN12C renal) [µM] | TGI (HL-60(TB) leukemia) [µM] | TGI (MOLT-4 leukemia) [µM] | TGI (NCI-H522 lung) [µM] | TGI (EKVX NSCLC) [µM] | TGI (RPMI-8226 leukemia) [µM] | GI50 (SF-268 CNS) [µM] | TGI (SF-268 CNS) [µM] | TGI (LOX IMVI melanoma) [µM] | TGI (UO-31 renal) [µM] | TGI (HOP-92 NSCLC) [µM] | TGI (BT-549 breast) [µM] | GI50 (SN12C renal) [µM] | GI50 (HL-60(TB) leukemia) [µM] | GI50 (MOLT-4 leukemia) [µM] | GI50 (NCI-H522 lung) [µM] | GI50 (LOX IMVI melanoma) [µM] | GI50 (UO-31 renal) [µM] | GI50 (HOP-92 NSCLC) [µM] |
| --- | --- | --- | --- | --- | --- | --- | --- | --- | --- | --- | --- | --- | --- | --- | --- | --- | --- | --- | --- |
| O=c1cc(-c2ccc3c(c2)OCO3)[nH]c2cc3c(cc12)OCO3 | > 100 | 66.6 | > 100 | > 100 | > 100 | > 100 | 46.8 | > 100 | > 100 | > 100 | > 100 |  |  |  |  |  |  |  |  |
| N#Cc1cccc(-n2[nH]c(=O)ccc2=O)c1 |  | > 100 | > 100 | > 100 |  | > 100 |  | > 100 |  | > 100 | > 100 |  |  |  |  |  |  |  |  |
| CC(C)C(NC(=O)Oc1ccccc1)C(=O)NC1c2c(Br)sc(Br)c2C(=O)C1O (centres undefined) | 10.8 | > 25 | > 25 |  | 15.2 |  |  | 14.1 | 8.91 | > 25 |  | 8.16 |  |  |  |  |  |  |  |
| CC(=O)OCCOCNC(=S)N/N=C/c1ccc([N+](=O)[O-])o1 | > 100 | 39.2 |  | > 100 | > 100 |  |  | > 100 | > 100 | > 100 |  |  |  |  |  |  |  |  |  |
| O=C1/C(=C\c2ccc(Cl)cc2Cl)Sc2scc(-c3ccc(O)c(O)c3)[n+]21 | 30.3 | 29.8 | 29.6 | 39.4 | 49 |  |  | > 100 | 40.8 | 26.8 | 23.1 | 46.7 |  |  |  |  |  |  |  |
| COc1cc(C2C(Cl)C(=O)N2n2cnc3ccccc3c2=O)ccc1O (centres undefined) | > 100 |  | > 100 | > 100 | > 100 | > 100 |  | > 100 | > 100 | > 100 |  |  |  |  |  |  |  |  |  |
| O=C1c2ccccc2-n2nnnc2C2CSCN12 (centres undefined) | > 100 |  | > 100 | > 100 | > 100 | > 100 |  | > 100 | > 100 | > 100 |  | > 100 |  |  |  |  |  |  |  |
| C=C1C(=O)O[C@@H]2/C=C(C)/C=C\[C@@H]3O[C@@]3(C)C[C@@H](O)C12 (some centres undefined) | 30.4 | 8.93 | 30.1 | 19.6 | 20.2 | 18.7 |  | 84.7 | 22.2 | 30.1 | 20.4 |  |  |  |  |  |  |  |  |
| CCn1cnc2c(=S)nc(N)[nH]c21 | > 100 | > 100 | > 100 | > 100 | > 100 | > 100 |  | > 100 | > 100 | > 100 |  |  |  |  |  |  |  |  |  |
| Cc1cn(C2OC(CO[Si](C)(C)C(C)(C)C)C(N(C)O[Si](C)(C)C(C)(C)C)C2[Se]c2ccccc2)c(=O)[nH]c1=O (centres undefined) | > 100 | > 100 | > 100 | 11.6 |  | > 100 |  | 10.2 | 10.2 | 13.7 | 10.9 |  |  |  |  |  |  |  |  |
| CCOC(=O)/C(=C/c1ccc(OC)cc1)N(CC)CC | > 100 | > 100 | > 100 | > 100 | > 100 | > 100 |  | > 100 | > 100 | > 100 | > 100 |  |  |  |  |  |  |  |  |
| CCCCCCOc1ccc(/C=N/Nc2cc(C)nc3ccc(Cl)cc23)cc1 | 3.18 | 3.38 | 4.05 | 3.51 |  |  |  |  | 2.57 | 2.88 | 3.07 |  | 1.69 | 1.39 | 1.85 | 1.79 | 1.26 | 1.5 | 1.42 |
| C(=C/CCCN1O[C@@H](CCCCCCCCc2cccnc2)[C@H]2CCC[C@H]21)/CCCCCCCCCc1cccnc1 | 40.3 | 23 | 55.1 |  | 13.9 | 28 |  | 63.7 | 35.3 | 40.5 | 28.1 | 95.7 |  |  |  |  |  |  |  |
| COc1ccc(C2Oc3cc(OC)c(OC)cc3C2CCl)cc1OC (centres undefined) | > 100 | > 100 | > 100 | > 100 | > 100 | > 100 |  | > 100 | > 100 | > 100 | > 100 |  |  |  |  |  |  |  |  |
| CC1=NN(c2nc(N)nc(COc3ccc(N)cc3)n2)C(C)(C)C1 |  | > 100 | > 100 |  | > 100 | > 100 |  | > 100 | > 100 | > 100 | > 100 | > 100 |  |  |  |  |  |  |  |
| CCNC(=O)c1ccc(C)c(N=NN(C)C)c1 | > 100 |  |  | > 100 | > 100 |  |  | > 100 | > 100 | > 100 | > 100 |  |  |  |  |  |  |  |  |
| COc1ccc(S(=O)(=O)n2c3c(c4ccccc42)[C@@H]2[C@@H](CCCN2C(=O)CS(=O)c2ccc(C)cc2)[C@H](Cl)C3)cc1 (some centres undefined) | > 100 | > 100 | > 100 | > 100 | > 100 |  |  | > 100 | > 100 | > 100 | > 100 | > 100 |  |  |  |  |  |  |  |
| O=C1/C(=C/c2ccco2)NC(=S)N1CN1CCCCC1 | > 100 |  | > 100 | > 100 | > 100 | > 100 |  | > 100 | > 100 | > 100 | > 100 |  |  |  |  |  |  |  |  |
| Cc1[nH]c(=O)nc2sc(=NC3CCCCC3)n(C3CCCCC3)c(=O)c12 | > 100 | > 100 | > 100 | > 100 | > 100 | > 100 |  |  | > 100 | > 100 | > 100 |  |  |  |  |  |  |  |  |
| CCOC(=O)c1nnn(CCCCO)c1C(=O)OCC | > 100 |  | > 100 |  | > 100 |  |  | > 100 | > 100 | > 100 | > 100 | > 100 |  |  |  |  |  |  |  |
| COc1ccc(C(C)NNC(=O)c2ccncc2)cc1OC (centres undefined) | > 100 | > 100 | > 100 |  | > 100 | > 100 |  | > 100 | > 100 | > 100 | > 100 | > 100 |  |  |  |  |  |  |  |
| COC(=O)c1cccc(C)c1C1CN=NC12Cc1cc(C)cc(C)c1C2=O (centres undefined) | > 100 | 47.5 | 74.9 | > 100 | 90.3 | > 100 |  | > 100 | > 100 | > 100 | > 100 |  |  |  |  |  |  |  |  |
